# Molecular target: T1, human phospho-Mek1 / non-phosphorylated Mek1 (Homo sapiens, UniProt Q02750)
# T1 construct: GST (N); His6 (C); purchased Upstate 14-429 (phospho-Mek1) or 14-420 (non-phosphorylated Mek1)
# Assay: In vitro Mek1 Kinase Assay
# Assay type: biochemical
# Conditions: recombinant GST/His6-tagged Mek1, 2 μM ATP, 2 hours at 30° C., PKLight luminescence readout
# Method: In vitro Mek1 Kinase Assay
# 2.5 μl of Mek1 kinase buffer (10 mM MOPS [pH 7.2], 25 mM sodium glycerophosphate, 5 mM EGTA [pH 8.0], 1 mM sodium orthovanadate, 1 mM dithiothreitol, 10 mM MgCl2, 0.1% Brij-35, 0.3 mg/ml bovine serum albumin) containing either 5 ng of high specific activity, recombinant N-terminal GST-tagged, C-terminal His6-tagged human phospho-Mek1 (Upstate Cat. 14-429), or 200 ng of low specific activity, non-phosphorylated Mek1 (Upstate Cat. 14-420), is dispensed into one well of a 1536 multi-well white solid plate. 50 nl of 100× concentration of test compound in dimethyl sulfoxide (DMSO) is dispensed to the well by passive pin transfer and incubated for 15 minutes at room temperature (22° C.). 2.5 μl of Mek1 kinase buffer containing 2 μM ATP is then dispensed and the kinase reaction is allowed to incubate at 30° C. for 2 hours. The assay plates are lidded and maintained in a humidified environment. After 2 hours, 2.5 μl of PKLight protein kinase assay reagent (Cambrex) is dispensed. After an additional 5 minute incubation at room temperature, luminescence activity is measured on a suitable multi-mode plate reader. Inhibition of Mek1 kinase causes an associated increase in luminescence activity that is proportional to compound concentration. Negative control activity is measured with DMSO lacking any test compound. Positive control activity is measured with (R)—N— (2,3-dihydroxypropoxy)-3,4-fluoro4-iodophenylamino)benzamide [Thompson, N. and Lyons, J., Curr Opin Pharmacol, 5:350-356, 2005 (PD-0325901)]. Efficacy is measured as a percentage of positive control activity.
# T1 sequence (Q02750 whole entry): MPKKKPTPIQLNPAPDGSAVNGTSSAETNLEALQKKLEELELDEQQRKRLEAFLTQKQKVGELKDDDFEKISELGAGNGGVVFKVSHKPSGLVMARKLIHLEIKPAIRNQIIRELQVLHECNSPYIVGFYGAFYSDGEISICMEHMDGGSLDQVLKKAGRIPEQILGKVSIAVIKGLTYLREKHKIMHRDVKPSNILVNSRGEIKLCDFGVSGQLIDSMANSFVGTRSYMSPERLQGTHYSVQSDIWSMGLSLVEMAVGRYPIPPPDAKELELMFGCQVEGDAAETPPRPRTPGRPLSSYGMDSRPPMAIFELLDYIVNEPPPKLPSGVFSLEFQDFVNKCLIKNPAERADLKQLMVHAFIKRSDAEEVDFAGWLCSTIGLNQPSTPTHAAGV
row,IC50 [µM],SMILES
1,≤ 10,"O=C(O)c1ccc(-c2cnc3ccc(NC4CCOCC4)nn23)cc1 [Example 13, 4-(6-(tetrahydro-2H-pyran-4-ylamino)imidazo[1,2-b]pyridazin-3-yl)benzoic acid]"
2,> 10,"c1nc2nc[nH]c(NC3CCCCCC3)c-2n1 [Example 17, N-cycloheptyl-9H-purin-6-amine]"
3,> 10,"CN(C)CCNc1ccn2ncc(-c3ccc(Cl)cc3)c2n1 [Example 21, N1-(3-(4-chlorophenyl)pyrazolo[1,5-a]pyrimidin-5-yl)-N2,N2-dimethylethane-1,2-diamine]"
4,≤ 10,"CCN(c1ncnc2[nH]cnc12)C1CCCCC1 [Example 4, N-cyclohexyl-N-ethyl-9H-purin-6-anime]"
5,> 10,"CC(=O)c1ccc(-c2cnc3ccc(NCc4cccs4)nn23)s1 [Example 8, 1-(5-(6-(thiophen-2-ylmethylamino)imidazo[1,2-b]pyridazin-3-yl)thiophen-2-yl)ethanone]"
6,≤ 10,"CC(C)(C)n1nc(-c2ccc(F)cc2)c2c(N)ncnc21 [Example 3, 1-tert-butyl-3-(4-fluorophenyl)-1H-pyrazolo[3,4-d]pyrimidin-4-amine]"
7,≤ 10,"O=C(O)c1ccc(-c2cnc3ccc(NCc4cccs4)nn23)cc1 [Example 9, 4-(6-(thiophen-2-ylmethylamino)imidazo[1,2-b]pyridazin-3-yl)benzoic acid]"

# Second part, the molecule before the results:
row,SMILES,IC50 [µM]
1,"c1nc(NC2CCCC2)c2nc[nH]c2n1 [Example 16, N-cyclopentyl-9H-purin-6-amine]",> 10
2,Cn1cc(-c2cnc3ccc(NCc4cccs4)nn23)cn1 [Example 11],≤ 10
3,"N#Cc1ccc(-c2cnc3ccc(NC4CCOCC4)nn23)cc1 [Example 12, 4-(6-(tetrahydro-2H-pyran-4-ylamino)imidazo[1,2-b]pyridazin-3-yl)benzonitrile]",≤ 10
4,"N#Cc1ccc(-c2cnc3ccc(NCCc4cccnc4)nn23)cc1 [Example 20, 4-(6-(2-(pyridin-3-yl)ethylamino)imidazo[1,2-b]pyridazin-3-yl)benzonitrile]",≤ 10
5,"c1ccc2c(c1)[nH]c1ncnc(N3CCOCC3)c12 [Example 1, 4-(9H-pyrimido[4,5-b]indol-4-yl)morpholine]",≤ 10
6,"N#Cc1ccc(-c2cnc3ccc(NCCc4ccccn4)nn23)cc1 [Example 19, 4-(6-(2-(pyridin-2-yl)ethylamino)imidazo[1,2-b]pyridazin-3-yl)benzonitrile]",≤ 10
7,"O=C(O)c1ccc(-c2cnc3ccc(NCc4ccc(F)cc4)nn23)cc1 [Example 10, 4-(6-(4-fluorobenzylamino)imidazo[1,2-b]pyridazin-3-yl)benzoic acid]",≤ 10
8,"Cc1c([N+](=O)[O-])c2ccc(O)cc2n1-c1ccccc1 [Example 2, 2-methyl-3-nitro-1-phenyl-1H-indol-6-ol]",≤ 10
9,"N#Cc1ccc(-c2cnc3ccc(NCCCO)nn23)cc1 [Example 18, 4-(6-(3-hydroxypropylamino)imidazo [1,2-b]pyridazin-3-yl)benzonitrile]",≤ 10
10,"COc1cc(OC)c2c(c1)ncc1c(C)nn(-c3ccccc3)c12 [Example 7, 7,9-dimethoxy-3-methyl-1-phenyl-1H-pyrazolo[4,3-c]quinoline]",≤ 10
11,"O=C(O)c1ccc(-c2cnc3ccc(NC4CCC(O)CC4)nn23)cc1 (stereo not shown) [Example 15, 4-(6-(4-hydroxycyclohexylamino)imidazo[1,2-b]pyridazin-3-yl)benzoic acid]",≤ 10
12,"c1ccc2c(c1)CCN2c1ncnc2[nH]cnc12 [Example 5, 6-(indolin-1-yl)-9H-purine]",> 10
13,"COc1cncc(-c2cnc3ccc(NC4CCOCC4)nn23)c1 [Example 14, 3-(5-methoxypyridin-3-yl)-N-(tetrahydro-2H-pyran-4-yl)imidazo[1,2-b]pyridazin-6-amine]",> 10
14,"CC1CCN(c2ncnc3[nH]cnc23)CC1 [Example 6, 6-(4-methylpiperidin-1-yl)-9H-purine]",> 10
15,"CCCNc1ccc2ncc(-c3ccc(C(=O)O)cc3)n2n1 [Example 22, 4-(6-(propylamino)imidazo[1,2-b]pyridazin-3-yl)benzoic acid]",> 10

# From patent publication US20070049591A1, “Inhibitors of MAPK/Erk Kinase” (KALYPSYS, INC., priority 2005, published 2007)
